Test results published in ChEMBL document CHEMBL1201862, “PubChem BioAssay data set” (2004).
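Assay format: 96-well plates, 48-hour exposure. At the GI50, growth is halved.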 Activity calls are given as the source filed them. No stated cut-off is given here; in the data, active = GI50 up to about 1.1 µM and inactive = higher.

Columns and labels:
Assay in all cases: growth of human tumour cells (NCI), 48 h
ACHN = tested on: ACHN
CCRF-CEM = tested on: CCRF-CEM
EKVX = tested on: EKVX
HT-29 = tested on: HT-29
IGROV-1 = tested on: IGROV-1
KM12 = tested on: KM12
LOX IMVI = tested on: LOX IMVI
MOLT-4 = tested on: MOLT-4
OVCAR-8 = tested on: OVCAR-8
RXF 393 = tested on: RXF 393
SK-OV-3 = tested on: SK-OV-3
SR = tested on: SR
UACC-257 = tested on: UACC-257
SK-MEL-28 = tested on: SK-MEL-28

Measured: GI50

CCNC(=O)/C=C/CCC#Cc1ccc(-c2ccc(-c3cccs3)s2)s1
inactive: ACHN > 100 µM | CCRF-CEM > 100 µM | EKVX > 100 µM | HT-29 > 100 µM | IGROV-1 > 100 µM | KM12 > 100 µM | LOX IMVI > 100 µM | MOLT-4 > 100 µM | OVCAR-8 > 100 µM | RXF 393 > 100 µM | SK-OV-3 > 100 µM | SR > 100 µM | UACC-257 > 100 µM

CC(=O)O[C@]12CCCCCCC1C1(O)C(O)CCC[C@H]12 (some centres not stated)
inactive: ACHN > 100 µM | CCRF-CEM > 100 µM | EKVX > 100 µM | HT-29 > 100 µM | KM12 > 100 µM | LOX IMVI > 100 µM | MOLT-4 > 100 µM | OVCAR-8 > 100 µM | RXF 393 > 100 µM | SK-MEL-28 > 100 µM | SK-OV-3 > 100 µM | SR > 100 µM | UACC-257 > 100 µM

CC(=O)NC(CCCN)C(=O)NCc1ccccc1 (configuration not stated)
inactive: ACHN > 100 µM | CCRF-CEM > 100 µM | EKVX > 100 µM | HT-29 > 100 µM | IGROV-1 > 100 µM | KM12 > 100 µM | LOX IMVI > 100 µM | MOLT-4 > 100 µM | OVCAR-8 > 100 µM | RXF 393 > 100 µM | SK-MEL-28 > 100 µM | SK-OV-3 > 100 µM | UACC-257 > 100 µM

CC1(CO)C(=O)OC12CCCCC2 (configuration not stated)
inactive: CCRF-CEM > 100 µM | EKVX > 100 µM | HT-29 > 100 µM | IGROV-1 > 100 µM | KM12 > 100 µM | LOX IMVI > 100 µM | MOLT-4 > 100 µM | OVCAR-8 > 100 µM | SK-MEL-28 > 100 µM | SK-OV-3 > 100 µM | SR 84.9 µM | UACC-257 > 100 µM

CC1=NN(C(=O)c2cc(Cl)cc([N+](=O)[O-])c2)C(=O)C1/N=N/c1ccccc1C(=O)O (configuration not stated)
inactive: ACHN > 100 µM | CCRF-CEM > 100 µM | EKVX > 100 µM | HT-29 > 100 µM | IGROV-1 > 100 µM | KM12 > 100 µM | MOLT-4 > 100 µM | OVCAR-8 > 100 µM | RXF 393 > 100 µM | SK-MEL-28 > 100 µM | SK-OV-3 > 100 µM | SR > 100 µM | UACC-257 > 100 µM

CCOC(=O)CCc1c(C)c2c(OC(C)=O)cc(OC(C)=O)cc2oc1=O
inactive: ACHN 28.1 µM | EKVX 58.3 µM | HT-29 35.6 µM | KM12 37.4 µM | LOX IMVI > 10 µM | OVCAR-8 69.3 µM | RXF 393 21.4 µM | SK-MEL-28 42 µM | UACC-257 38.9 µM

Cc1ccc([N+](=O)[O-])cc1NC(=O)c1cccc([N+](=O)[O-])c1O
inactive: ACHN 14.4 µM | CCRF-CEM 18.2 µM | EKVX 21.2 µM | HT-29 20.1 µM | IGROV-1 11.7 µM | KM12 19.1 µM | LOX IMVI 26.6 µM | MOLT-4 15.6 µM | OVCAR-8 23 µM | RXF 393 3.99 µM | SK-MEL-28 11.5 µM | SK-OV-3 17.1 µM | UACC-257 9.59 µM

CC(=O)OCC1OC(N2C(=O)/C(=N\NC(N)=S)c3ccc([N+](=O)[O-])cc32)C(OC(C)=O)C1OC(C)=O (configuration not stated)
inactive: ACHN 30.7 µM | CCRF-CEM 12.9 µM | EKVX 36.6 µM | HT-29 30 µM | IGROV-1 48.8 µM | KM12 38.5 µM | LOX IMVI 19.1 µM | MOLT-4 15.3 µM | OVCAR-8 19.4 µM | RXF 393 20.2 µM | SK-MEL-28 29.2 µM | SK-OV-3 > 100 µM | SR 5.98 µM | UACC-257 37.4 µM

Nc1nnc2nc(CC(=O)/C=C/c3ccccc3)c(=O)[nH]n12
inactive: ACHN > 100 µM | CCRF-CEM > 100 µM | EKVX > 100 µM | HT-29 > 100 µM | IGROV-1 > 100 µM | KM12 > 100 µM | LOX IMVI > 100 µM | MOLT-4 > 100 µM | OVCAR-8 > 100 µM | RXF 393 > 100 µM | SK-MEL-28 > 100 µM | SK-OV-3 > 100 µM | UACC-257 > 100 µM

O=C(O)CCSC(=S)Nc1cccc(F)c1
inactive: ACHN 23.8 µM | EKVX 18.6 µM | HT-29 80 µM | IGROV-1 29.2 µM | KM12 42.1 µM | LOX IMVI 13.9 µM | MOLT-4 30 µM | OVCAR-8 37.8 µM | RXF 393 30.5 µM | SK-MEL-28 28 µM | SK-OV-3 > 100 µM | SR 39.2 µM | UACC-257 22.3 µM

CCN(CC)CCOC(=O)c1ccc(N)cc1.CCOC(=O)Nc1ccc(S(=O)(=O)OC)cc1.CCOC(=O)Nc1ccc(S(=O)(=O)OC)cc1.Nc1ccc(C(=O)O)c(O)c1
inactive: ACHN > 100 µM | CCRF-CEM > 100 µM | EKVX > 100 µM | HT-29 > 100 µM | IGROV-1 > 100 µM | KM12 > 100 µM | LOX IMVI > 100 µM | MOLT-4 > 100 µM | OVCAR-8 > 100 µM | RXF 393 > 100 µM | SK-MEL-28 > 100 µM | SK-OV-3 > 100 µM | UACC-257 > 100 µM

O=C1N2Cc3c4ccc5c3CN3C(=O)N6Cc7c(ccc(c7CN1C6(c1ccccc1)C23c1ccccc1)OCCOCCOc1cc(Br)c(Br)cc1OCCOCCO4)OCCOCCOc1cc(Br)c(Br)cc1OCCOCCO5 (configuration not stated)
inactive: ACHN 47.8 µM | CCRF-CEM > 100 µM | EKVX > 100 µM | HT-29 > 100 µM | IGROV-1 44 µM | KM12 > 100 µM | MOLT-4 > 100 µM | OVCAR-8 > 100 µM | RXF 393 > 100 µM | SK-MEL-28 > 100 µM | SK-OV-3 > 100 µM | SR > 100 µM | UACC-257 > 100 µM

CC1CCc2c(sc3ncnc(N/N=C/c4ccc(Cl)cc4)c23)C1 (configuration not stated)
inactive: ACHN 27.3 µM | CCRF-CEM > 10 µM | EKVX 20.1 µM | HT-29 38.5 µM | IGROV-1 53.1 µM | LOX IMVI 22.1 µM | MOLT-4 20.6 µM | OVCAR-8 31.4 µM | RXF 393 29.6 µM | SK-MEL-28 32.3 µM | SK-OV-3 35.6 µM | SR 21.6 µM | UACC-257 29.8 µM

COc1cc2cc[n+](C)c(Cc3ccccc3)c2cc1OC
inactive: ACHN > 100 µM | CCRF-CEM > 100 µM | EKVX > 100 µM | HT-29 > 100 µM | IGROV-1 > 100 µM | KM12 > 100 µM | LOX IMVI > 100 µM | MOLT-4 > 100 µM | OVCAR-8 > 100 µM | RXF 393 > 100 µM | SK-MEL-28 > 100 µM | SK-OV-3 > 100 µM | UACC-257 > 100 µM

C=CCN1C(=O)CS/C1=N\NC(=O)c1c(C)nc2sccn12
inactive: ACHN > 100 µM | CCRF-CEM > 100 µM | EKVX > 100 µM | HT-29 > 100 µM | IGROV-1 > 100 µM | KM12 > 100 µM | LOX IMVI > 100 µM | MOLT-4 > 100 µM | OVCAR-8 > 100 µM | RXF 393 > 100 µM | SK-MEL-28 > 100 µM | SK-OV-3 > 100 µM | SR > 100 µM | UACC-257 > 100 µM

CC1=C(C(=O)Nc2cc(F)c(F)cc2F)C(c2ccc(N(C)C)cc2)C(C(=O)Nc2cc(F)c(F)cc2F)=C(C)N1
inactive: ACHN 19.4 µM | CCRF-CEM 18.5 µM | EKVX 16 µM | HT-29 30.3 µM | IGROV-1 35.5 µM | KM12 19.9 µM | LOX IMVI 31.8 µM | MOLT-4 15.4 µM | OVCAR-8 29.6 µM | RXF 393 17.1 µM | SK-MEL-28 30.5 µM | SK-OV-3 30.1 µM | UACC-257 25.5 µM

CN(C)CCNC(=O)c1cccc2ccc(-c3cccnc3)nc12
inactive: ACHN 3.44 µM | CCRF-CEM 6.4 µM | EKVX 4.47 µM | HT-29 4.78 µM | IGROV-1 3.24 µM | KM12 6.5 µM | LOX IMVI 3.8 µM | MOLT-4 2.74 µM | OVCAR-8 4.3 µM | RXF 393 6.32 µM | SK-MEL-28 11.6 µM | SK-OV-3 10.1 µM | UACC-257 4.15 µM

COc1ccc(C2NCCc3c2[nH]c2ccccc32)cc1 (configuration not stated)
inactive: ACHN > 100 µM | CCRF-CEM 77.6 µM | EKVX > 100 µM | HT-29 > 100 µM | IGROV-1 > 100 µM | KM12 > 100 µM | LOX IMVI > 100 µM | MOLT-4 > 100 µM | OVCAR-8 > 100 µM | RXF 393 67.1 µM | SK-MEL-28 5.22 µM | SK-OV-3 > 100 µM | SR 28.2 µM | UACC-257 45.6 µM

O=C(Nc1c(-c2nc3ccccc3[nH]2)sc(=S)n1-c1ccccc1)c1ccccc1
inactive: ACHN > 100 µM | CCRF-CEM > 100 µM | EKVX > 100 µM | HT-29 > 100 µM | IGROV-1 > 100 µM | KM12 > 100 µM | LOX IMVI 97.1 µM | MOLT-4 > 100 µM | OVCAR-8 88.9 µM | RXF 393 > 100 µM | SK-MEL-28 > 100 µM | SK-OV-3 > 100 µM | UACC-257 > 100 µM

Cn1c(=O)c(NC(=O)C(Cl)(Cl)Cl)nc2ccccc21
inactive: CCRF-CEM > 100 µM | EKVX 54.5 µM | HT-29 > 100 µM | IGROV-1 > 100 µM | KM12 > 100 µM | LOX IMVI > 100 µM | MOLT-4 > 100 µM | OVCAR-8 > 100 µM | RXF 393 81.8 µM | SK-MEL-28 > 100 µM | SK-OV-3 > 100 µM | UACC-257 > 100 µM
